Patent USRE46856E1, “Substituted 2,3-dihydroimidazo[1,2-c]quinazoline derivatives useful for treating hyper-proliferative disorders and diseases associated with angiogenesis” (Bayer Intellectual Property GmbH, priority 2006, dated 2018)

Key:
PI3Kβ = molecular target: T1, PI3Kβ (Homo sapiens, UniProt P42338); test: Isozyme selectivity test: kinase assay of PI3Kβ (p110β assay); assay type: biochemical; details: recombinant truncated p110β, 7.5 ng protein/well
T1 construct: His6 (N); made in house; host or cells: S. frugiperda 9 (Sf9) insect cells
Text: [Isozyme Selectivity Test in PI3K]
Determination of IC50 Values of Compounds in Kinase Assays of PI3Kβ and PI3Kγ

PI3Kα = molecular target: T2, PI3Kα (Homo sapiens, UniProt P42336); test: Solid-phase lipid kinase assay of PI3Kα (p110α assay); assay type: biochemical; details: recombinant truncated human p110α, 10 μM ATP
T2 construct: His6 (N); made in house; host or cells: S. frugiperda 9 (Sf9) insect cells
Text: [Determination of IC50 Values of Compounds in Kinase Assay of PI3Kα]
LABORATORIES (Toronto, Canada). […] [γ^33P]ATP and unlabeled ATP were purchased from […] […] BIOTECH (Buckinghamshire, UK) and ROCHE DIAGNOSTICS (Mannheim, Germany), respectively. Scintillation cocktails and MicroScint PS™ were purchased from PACKARD (Meriden, Conn.). Maxisorp™ plates were purchased from NALGE NUNC INTERNATIONAL K.K. (Tokyo, Japan). All other chemicals not further specified were from WAKO PURE CHEMICALS (Osaka, Japan).
The plates were subsequently air-dried by incubation for at least 2 hours in a fume hood. The reaction was set up by mixing 25 μL/well of assay buffer 2×(100 mM MOPSO/NaOH, 0.2 M NaCl, pH 7.0, 8 mM MgCl2, 2 mg/mL BSA (fatty acid-free)), and 7.5 ng/well PI3Kα in the lipid pre-coated plate. 100× test compounds were added in 2% DMSO. The reaction was started by adding 20 μL/well of ATP mix (final 10 μM ATP; 0.05 μCi/well [γ^33P]ATP). After incubation at RT for 2 hours, the reaction was terminated by adding 50 μl/well stop solution (50 mM EDTA, pH 8.0). The plate was then washed twice with Tris-buffered saline (TBS, pH 7.4). MicroScint PS™ (PACKARD) scintillation mix was added at 100 μL/well, and radioactivity was counted using a TopCount™ (PACKARD) scintillation counter.
The inhibition percent at each concentration of compound was calculated, and IC50 values were determined from the inhibition of curve.

[1] = tested on: IGF-1 induced AKT phosphorylation in A549 cells; test: IGF-1 induced AKT phosphorylation assay (A549 cell assay); assay type: cell-based; details: Homo sapiens; A549 cells, 25 ng/ml IGF-1, phospho-AKT(Ser 473); read-out: average IC50 in the A549 cell assay
Method in brief: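 A549 cells stimulated with 25 ng/ml IGF-1 for 10 min at 37 °C, then fixed in formaldehyde/methanol. Phospho-AKT detected by cell ELISA (primary anti-phospho-AKT, HRP secondary, ECL luminescence); IC50 from inhibition curve.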

T1 sequence (P42338 109-1070): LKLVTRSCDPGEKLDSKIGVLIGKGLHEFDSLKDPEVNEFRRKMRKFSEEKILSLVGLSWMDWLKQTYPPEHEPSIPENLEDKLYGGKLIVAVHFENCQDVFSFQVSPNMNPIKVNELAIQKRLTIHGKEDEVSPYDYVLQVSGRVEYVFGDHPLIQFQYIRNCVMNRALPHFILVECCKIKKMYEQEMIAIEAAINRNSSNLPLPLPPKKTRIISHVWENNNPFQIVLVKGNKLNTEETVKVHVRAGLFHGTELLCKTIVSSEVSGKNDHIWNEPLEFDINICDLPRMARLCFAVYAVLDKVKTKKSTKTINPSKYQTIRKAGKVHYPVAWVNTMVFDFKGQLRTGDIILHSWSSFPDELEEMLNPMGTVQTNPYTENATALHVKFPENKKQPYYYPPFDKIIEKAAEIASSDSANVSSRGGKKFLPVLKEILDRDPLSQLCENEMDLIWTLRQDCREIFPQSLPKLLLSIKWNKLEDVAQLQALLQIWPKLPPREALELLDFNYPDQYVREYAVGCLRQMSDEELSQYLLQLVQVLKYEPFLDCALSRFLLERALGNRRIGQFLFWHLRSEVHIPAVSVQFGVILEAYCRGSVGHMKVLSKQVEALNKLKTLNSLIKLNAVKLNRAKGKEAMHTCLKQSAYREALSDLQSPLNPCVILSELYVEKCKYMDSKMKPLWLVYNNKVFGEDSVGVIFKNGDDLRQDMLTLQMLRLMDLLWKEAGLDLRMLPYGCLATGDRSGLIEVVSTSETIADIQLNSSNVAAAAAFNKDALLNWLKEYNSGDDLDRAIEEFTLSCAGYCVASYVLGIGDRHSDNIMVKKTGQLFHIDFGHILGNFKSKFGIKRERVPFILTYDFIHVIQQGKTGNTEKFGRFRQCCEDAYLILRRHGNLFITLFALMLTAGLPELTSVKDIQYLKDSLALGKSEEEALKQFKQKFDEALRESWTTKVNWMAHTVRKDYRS
T2 sequence (P42336 109-1068): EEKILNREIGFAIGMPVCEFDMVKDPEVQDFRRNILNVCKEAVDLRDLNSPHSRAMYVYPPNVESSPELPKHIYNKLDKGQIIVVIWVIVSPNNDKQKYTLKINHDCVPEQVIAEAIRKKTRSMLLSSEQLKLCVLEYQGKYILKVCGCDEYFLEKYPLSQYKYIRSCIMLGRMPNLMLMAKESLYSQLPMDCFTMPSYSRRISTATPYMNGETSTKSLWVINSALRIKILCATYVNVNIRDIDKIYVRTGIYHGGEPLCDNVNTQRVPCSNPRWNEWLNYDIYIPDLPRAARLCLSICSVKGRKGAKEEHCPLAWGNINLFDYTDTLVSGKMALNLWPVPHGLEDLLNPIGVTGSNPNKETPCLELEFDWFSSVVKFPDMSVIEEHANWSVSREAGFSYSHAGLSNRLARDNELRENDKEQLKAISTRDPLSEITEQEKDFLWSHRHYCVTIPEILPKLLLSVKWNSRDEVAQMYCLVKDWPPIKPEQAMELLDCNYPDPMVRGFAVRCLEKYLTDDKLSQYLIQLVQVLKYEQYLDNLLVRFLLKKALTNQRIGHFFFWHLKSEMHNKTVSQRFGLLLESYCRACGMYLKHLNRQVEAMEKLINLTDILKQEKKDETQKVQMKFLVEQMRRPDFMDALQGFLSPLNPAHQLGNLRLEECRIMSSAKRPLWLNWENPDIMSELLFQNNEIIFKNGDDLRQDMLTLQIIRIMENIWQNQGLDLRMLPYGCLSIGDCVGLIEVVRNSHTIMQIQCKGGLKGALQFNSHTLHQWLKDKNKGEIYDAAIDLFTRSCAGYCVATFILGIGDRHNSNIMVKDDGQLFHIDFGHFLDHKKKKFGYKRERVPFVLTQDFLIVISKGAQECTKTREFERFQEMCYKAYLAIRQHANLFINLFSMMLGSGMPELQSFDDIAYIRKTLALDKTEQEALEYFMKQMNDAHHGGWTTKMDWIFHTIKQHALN

SMILES	IC50 (PI3Kβ) [nM]	IC50 (PI3Kα) [nM]	IC50 [1] [nM]
COc1c(OCCCN2CCOCC2)ccc2c1N=C(NC(=O)c1ccc(-n3cccc3)nc1)N1CCN=C21 [Example 56, N-[7-methoxy-8-(3-morpholin-4-ylpropoxy)-2,3-dihydroimidazo[1,2-c]quinazolin-5-yl]-6-(1H-pyrrol-1-yl)nicotinamide]	10 to 100	10 to 100	> 1000
COc1c(OCCCN2CCOCC2)ccc2c1N=C(NC(=O)c1ccc(N3CCOCC3)nc1)N1CCN=C21 [Example 57, N-[7-methoxy-8-(3-morpholin-4-ylpropoxy)-2,3-dihydroimidazo[1,2-c]quinazolin-5-yl]-6-morpholin-4-ylnicotinamide]	10 to 100	10 to 100	100 to 1000
COc1c(OCCCN2CCOCC2)ccc2c1N=C(NC(=O)c1ccc(NC(=O)C(C)(C)C)nc1)N1CCN=C21 [Example 59, 6-[(2,2-dimethylpropanoyl)amino]-N-[7-methoxy-8-(3-morpholin-4-ylpropoxy)-2,3-dihydroimidazo[1,2-c]quinazolin-5-yl]nicotinamide]	> 100	> 100	> 1000
COc1c(OCCCN2CCOCC2)ccc2c1N=C(NC(=O)c1ccc(OCC(F)(F)F)nc1)N1CCN=C21 [Example 61, N-[7-methoxy-8-(3-morpholin-4-ylpropoxy)-2,3-dihydroimidazo[1,2-c]quinazolin-5-yl]-6-(2,2,2-trifluoroethoxy)nicotinamide]	10 to 100	10 to 100	100 to 1000
COc1c(OCCCN2CCOCC2)ccc2c1N=C(NC(=O)c1ccc(C(F)(F)F)nc1)N1CCN=C21 [Example 62, N-[7-methoxy-8-(3-morpholin-4-ylpropoxy)-2,3-dihydroimidazo[1,2-c]quinazolin-5-yl]-6-(trifluoromethyl)nicotinamide]	10 to 100	10 to 100	100 to 1000
COc1c(OCCCN2CCOCC2)ccc2c1N=C(NC(=O)c1cccs1)N1CCN=C21 [Example 93, N-[7-methoxy-8-(3-morpholin-4-ylpropoxy)-2,3-dihydroimidazo[1,2-c]quinazolin-5-yl]thiophene-2-carboxamide]	10 to 100	10 to 100	100 to 1000
COc1c(OCCCN2CCOCC2)ccc2c1N=C(NC(=O)c1csc(C)n1)N1CCN=C21 [Example 98, N-[7-methoxy-8-(3-morpholin-4-ylpropoxy)-2,3-dihydroimidazo[1,2-c]quinazolin-5-yl]-2-methyl-1,3-thiazole-4-carboxamide]	10 to 100	10 to 100	> 1000
